In patent US10626118B2, “Pyrrolopyrimidine crystal for preparing JAK inhibitor” (Chia Tai Tianqing Pharmaceutical Group Co., Ltd., priority 2016, dated 2020):
Like-named read-outs stand apart in the source and are kept apart here.

What was measured:
[1] = dogs, Male, FDA pharmacology review, cited from earlier work
[2] = rats, 30 mg/kg PO; FDA pharmacology review; cited from earlier work
[3] = Stability test, open clean container at 60° C.; format: physicochemical
Description: The crystal A obtained in Method 1 of Example 2 and the crystal B obtained in Example 3 were placed in an open clean container at 60° C., and sampled for detection on days 5 and 10, respectively.

| SMILES | AUCINF_obs ([1]; IV 5 mg/kg) [µg·h/mL] | AUCINF_obs ([1]; PO 10 mg/kg) [µg·h/mL] | AUCINFobs [2] [µg·h/mL] | Content (%) ([3]; Day 0) | Total Impurity (%) ([3]; Day 0) | Content (%) ([3]; Day 5) | Total Impurity (%) ([3]; Day 5) | Content (%) ([3]; Day 10) | Total Impurity (%) ([3]; Day 10) |
| --- | --- | --- | --- | --- | --- | --- | --- | --- | --- |
| N#CC[C@H](C1CCCC1)n1cc(-c2ncnc3[nH]ccc23)cn1 [Ruxolitinib] | 13.776 | 15.716 | 1.345 | – | – | – | – | – | – |
| N#CC[C@H](C1CCCC1)n1cc(-c2ncnc3[nH]ccc23)c(N)n1 [Crystal B of compound represented by formula I] [(3R)-3-[3-amino-4-(7H-pyrrolo[2,3-d]pyrimidin-4-yl)-1H-pyrazol-1-yl]-3-cyclopentyl-propionitrile] | – | – | – | 99.23 | 0.77 | 99.23 | 0.77 | 99.22 | 0.78 |
| N#CC[C@H](C1CCCC1)n1cc(-c2ncnc3[nH]ccc23)c(N)n1 [Crystal A of compound represented by formula I] [(3R)-3-[3-amino-4-(7H-pyrrolo[2,3-d]pyrimidin-4-yl)-1H-pyrazol-1-yl]-3-cyclopentyl-propionitrile] | – | – | – | 99.72 | 0.28 | 99.71 | 0.29 | 99.73 | 0.27 |
